Data taken from patent US5646149A, “Compounds having both potent calcium antagonist and antioxidant activity and use thereof as cytoprotective agents” (Alcon Laboratories, Inc., priority 1995, dated 1997).
Like-named read-outs stand apart in the source and are kept apart here.

What was measured:
[1] = DPPH free radical scavenging assay; settings: 30 min
Procedure: (§1) The DPPH assay is a chemical assay used to determine free radical scavenging activity. The retinal pieces, liver microsomes and phospholipid oxidation models measure antioxidant activity. The calcium binding assay is a measure of the affinity of the compound for a calcium antagonist binding site. The test procedures are described in greater detail below.
Free radical scavenging activity was determined by measuring the test compound's ability to quench a ethanol solution of the free radical dye, 1,1-diphenyl-2-picrylhydrazyl, (DPPH). Test agents were dissolved in 95% ethanol and were added to a solution of DPPH in 95% ethanol. The final concentration of both the test compound and DPPH was 0.4 mMol. Absorbance was continuously recorded on a Perkin-Elmer Lamba 4B spectrophotometer. The percent quench was measured thirty minutes following the combination of the two solutions. (Free Rad. Res. Comms., volume 15, pages 91-100 (1991)).

bovine retinal pieces = assay: Cytoprotection / lipid peroxidation (TBARS) in bovine retinal pieces after hypoxia-reoxygenation; assay type: cell-based
Procedure: The DPPH assay is a chemical assay used to determine free radical scavenging activity. The retinal pieces, liver microsomes and phospholipid oxidation models measure antioxidant activity. The calcium binding assay is a measure of the affinity of the compound for a calcium antagonist binding site. The test procedures are described in greater detail below. The cytoprotective effects of the compounds were measured using bovine retinal pieces. […] After 50 minutes of hypoxia, test agents were added to the media to allow 10 minutes for the drug to diffuse into the tissue prior to reoxygenation. Vehicle was added to the non-drug group. Following the incubation period, the tissue was reoxygenated for 1 h. Lipid peroxidation was assessed by the formation of thiobarbituric acid reacting substances (TBARS). The tissues were homogenized and added to TCA-TBA reagent and heated in the presence of BHT. The homogenate was filtered and the absorbance of the supernatant was measured spectrophotometrically. A double derivative technique was used to calculate the concentration of TBARS present in each sample. Quantitation was based on molar extinction coefficient of 1.56×10^5.

Liver Microsomes = assay: Liver microsome lipid peroxidation assay; assay type: biochemical
Procedure: as §1
Antioxidant activity was also measured using a liver microsome assay (Chem. Biol. Interactions., volume 74, pages 233-52, (1990)). Microsomes were incubated in a KPi buffer. Lipid oxidation was initiated with ADP(1 mM)/FeCl3 (10 μM) and NADPH regenerating system, containing NADP^+. The lipid peroxidation was assayed by the TBA test. Malondialdehyde (MDA) was estimated by the formation of thiobarbituric acid-reactive substances. MDA-equivalents were calculated using ε=156 mM^- cm^-1. IC50S were calculated using regression lines.

[2] = Phospholipid oxidation assay in liposomes; assay type: biochemical
Procedure: as §1
Antioxidant activity was measured using a phospholipid oxidation assay. Liposomes formed from dilineoleolyl phosphocholine were exposed to Fe^+3 /EDTA (167 μM) and ascorbate (167 μM). Oxidation was measured by conjugate diene formation monitored using UV spectroscopy (Biochim. Biophys. Acta., volume 1081, pages 181-187, (1991)). The IC50 was calculated using the following non-linear regression algorithm: Y=A/[1+(B/X)^c ], wherein A=maximum, B=IC50 and c=cooperativity or relative broadness of the curves. The minimum was assumed to be zero.

Singlet oxygen quenching = assay: Singlet oxygen quenching; set-up: key: IA: inactive; settings: 37° C., ethanol/chloroform (50:50), 5 mM NDPO2
Procedure: The singlet oxygen quenching activity was studied in the following manner. Singlet oxygen was generated chemically by using thermodissociation of the endoperoxide 3,3'-(1,4-naphthylidene dipropionate), NPDO2. At 37° C., 3 ml ethanol/chloroform (50:50) were placed in a thermosrated cuvette. Reactions were started by injection of 5 mM NDPO2. The singlet oxygen quenching constants were calculated according to Stern-Volmer plots, from S0 /S=1+(Kq+KR)*[Q}*I, where S0, S--chemiluminesence (1270 nm) intensities in absence and in the presence of quenchers, respectively, [Q} is the quencher concentration and I is the lifetime of singlet oxygen (see J. Amer. Chem., volume 111, pages 2904-2914, (1989)).

[3] = value from Free Rad. Res. Comms., volume 15, pages 91-100 (1991); cited from earlier work
[4] = target: calcium antagonist binding site; assay: Calcium binding, radioligand (nitrendipine) binding assay in rat brain cortices; settings: radiolabeled nitrendipine
Procedure: as §1
Calcium binding was measured using a radioligand binding assay. Brain cortices were removed from rats and a membrane fraction was prepared by standard techniques. The membrane preparation was incubated with radiolabeled nitrendipine. Non-specific binding was estimated in the presence of non-labeled nitrendipine. Membranes were filtered and washed and the filters were counted to determine radiolabelled […] Acad. Sci. USA, volume 79, pages 3656-3660 (1982), Life Sci., volume 30, pages 2191-2202, (1982).

retina of albino rats = assay: Retinal light damage model (photochemical lesions, histology); assay type: in vivo, rat; settings: intraperitoneal, 48 h light exposure
Procedure: (§2) The retinoprotective properties of the compounds were measured in a light damage model. Photochemical lesions were induced in free moving unanesthetized albino rats by a single 48 h continuous broad-band florescent visible-light exposure. The rats were dosed by intraperitoneal injection 48 and 24 h prior to exposure, every 24 h during the exposure and once during the 24 h recovery period. Ocular tissues were obtained 24 h after light exposure. The tissues were analyzed using a quantitative computer image analyses system attached to the microscope. Retinal layer thickness, number of macrophages in the subretinal space, number of pyknotic nuclei in the outer nuclear layer, and retinal layer areas were parameters that were measured and statistically analyzed.
Control rats remaining on their normal 12 h light/12 h dark light cycle were devoid of retinal lesions upon microscopic examination and were assessed to have normal retinal function. […] The number of pyknotic photoreceptor nuclei was reduced by 50% in the outer nuclear layer compared to non-dosed animals.

retinal function of rats = assay: Ocular function by electroretinography after light exposure; assay type: in vivo, rat; settings: ERG a-wave and b-wave after 48 h light exposure
Procedure: as §2
Ocular function was measured using electroretinography. Rats were anesthetized after a four-day recovery period in the dark. Flash ERGs were elicited by viewing a ganzfield. Electrical responses to a series of light flashes increasing in intensity were digitized to analyze response voltage-log intensity relationships.
Retinal function was assessed by measuring the electroretinogram after 48 h light exposure. The ERG allows differential examination of photoreceptor activity (a-wave) and inner nuclear layer function (b-wave) which is correlated to retinal morphology change.

[5] = Summary of Activity table, test compound and DPPH 0.4 mMol
[6] = test compound and DPPH 0.4 mMol in 95% ethanol, thirty minutes
[7] = ADP (1 mM)/FeCl3 (10 μM), NADPH regenerating system, TBA test
[8] = Fe^+3/EDTA (167 μM) and ascorbate (167 μM), conjugate diene formation, read-out: Phospholipid Oxidation IC50
[9] = Summary of Activity table, read-out: Phosopholipid Oxidation IC50
[10] = Bos taurus, Summary of Activity table, bovine retinal pieces
[11] = Summary of Activity table, rat brain cortices, read-out: Ca+2 Binding IC50
[12] = rat brain cortices membrane, read-out: Ca^+2 Binding IC50

SMILES	DPPH (% Quench) [1, 5]	DPPH (% Quench) [1, 6]	IC50 (bovine retinal pieces; Summary of Activity table, bovine retinal pieces)	IC50 (bovine retinal pieces; bovine retina, hypoxia 1 h, agent added after 50 minutes, reoxygenation 1 h, TBARS)	IC50 (Liver Microsomes; [7])	IC50 (Liver Microsomes; Summary of Activity table)	IC50 [2, 8]	IC50 [2, 9]	Singlet Oxygen Quenching Kq (Singlet oxygen quenching)	DPPH (% Quench), literature value [3]	IC50 (bovine retinal pieces; [10])	IC50 [4, 11]	IC50 [4, 12]	Damage to photoreceptor cells (retina of albino rats)	RPE damage (retina of albino rats)	outer and inner segment damage (photoreceptor length) (retina of albino rats)	reduction of number of pyknotic photoreceptor nuclei in the outer nuclear layer (retina of albino rats; compared to non-dosed animals)	Macrophages in the subretinal space, compared to control values (retina of albino rats; vs control values)	Macrophages in the subretinal space, compared to non-dosed light exposed rats (retina of albino rats; vs non-dosed light exposed rats)	preservation of retinal function (electroretinogram) (retinal function of rats)
Cc1c(C)c2c(c(C)c1O)CC[C@@](C)(CCC[C@H](C)CCC[C@H](C)CCCC(C)C)O2 [Vitamin E, α-tocopherol]	87%	87%	1 nM	1 nM	37000 nM	37000 nM	4200 nM	4200 nM	1.2e+08 M⁻¹ s⁻¹	90%	–	–	–	–	–	–	–	–	–	–
Cc1c(C)c2c(c(C)c1O)CCC(C)(CCN1CCN(C(c3ccc(F)cc3)c3ccc(F)cc3)CC1)O2 (stereo not drawn) [Compound No. 1, 1-(4,4'-difluorobenzhydryl)-4-(6-hydroxy-2,5,7,8-tetramethylchroman-2-ethyl)piperazine]	99%	99%	–	–	1000 nM	1000 nM	3600 nM	3600 nM	–	–	10 nM	1000 to 10000 nM	1000 to 10000 nM	significantly minimized	greatly reduced	prevented outer and inner segment damage	50%	not greater than control values	significantly reduced	Significant preservation of retinal function
Fc1ccc(C(c2ccc(F)cc2)N2CCN(C/C=C/c3ccccc3)CC2)cc1 [Flunarizine]	–	–	–	–	27100 nM	27100 nM	–	–	5e+06 M⁻¹ s⁻¹	10%	–	–	–	–	–	–	–	–	–	–
Cc1c(C)c2c(c(C)c1O)CCC(C)(CN1CCN(C(c3ccc(F)cc3)c3ccc(F)cc3)CC1)O2 (stereo not drawn) [Compound No. 2, 1-(4,4'-difluorobenzhydryl)-4-(6-hydroxy-2,5,6,8-tetramethylchroman-2-methyl)piperazine dimaleate hemihydrate]	96%	96%	–	–	–	–	180 nM	–	1.6e+08 M⁻¹ s⁻¹	–	50 nM	1000 to 10000 nM	1000 to 10000 nM	–	–	–	–	–	–	–
Cc1cc(C(C)(C)C)c(O)c(C(C)(C)C)c1 [BHT]	64%	64%	–	–	1100 nM	1100 nM	201000 nM	201000 nM	IA	–	500 nM	–	–	–	–	–	–	–	–	–
